Patent US11306119B2, “Peptide bound to PD-L1 and use thereof” (KYUNGPOOK NATIONAL UNIVERSITY INDUSTRY-ACADEMIC COOPERATION …, priority 2017, dated 2022)

Tests used:
CT26 syngeneic tumor = test: Antitumor therapy in CT26 syngeneic mouse model (peptide alone); assay type: in vivo; conditions: i.v. every alternative day, 24 days, FIG. 5b
Description: (§1) 6-8-week-old WT Balb/c mice were purchased. Mice was cared and maintained under the guidelines of the Institutional Animal Care and Use Committee (IACUC) of Kyungpook National University (2014-0001-8.). Tumor was injected onto the lower right flank of the mice. For the in-vivo homing imaging, the tumor was developed for 7 days, after the tumor size reached to 100 mm^3, the mice were injected with 100 μl of […] Flamma-675 NIR fluorescence dye labelled peptides and allow the complete circulation for an hour. After incubation, the mice were anesthetized, and the image was taken using the IVIS imaging system. […] Tumor size was measured using a digital caliper, and the tumor volume was calculated using the formula (Volume ¼ (L−W−H)/2. (Length: longest dimension, Width: shorter dimension, parallel to the mouse body and Height: perpendicular to the length and width). All mice were checked for the ulceration and at the end of the treatment and the mice were sacrificed for the immune cell analysis.
(§2) Tumors were isolated, minced and incubated with a digestion buffer containing collagenase D (5 mg/ml) with the RPMI-1640 medium at 37° C. for 40 min. […] The single cell suspension was made ready to use and CD45 antibody was used to stain the tumor infiltrating leukocytes and then analyzed with following antibodies for CD4, CD8 and F4/80. […]

[1] = tested on: CT26 mouse syngeneic colon tumor; test: Combination therapy of peptides with doxorubicin in CT26 syngeneic colon tumor model; assay type: in vivo; conditions: flow cytometry, FIG. 6e
Description: as §1, §2

PD-L1 on MDA MB231 cells = test: Peptide and receptor internalization assay in MDA MB231 cells; assay type: cell-based, human; conditions: MDA MB231, FIG. 2d
Description: MDA MB231, CT26, MCF7, Hek29 cells (1×10^5) were seeded in eight well chamber slides for overnight. Next day, the cells were washed twice with PBS and incubated with 1% BSA at RT for 1 hr to reduce the non-specific binding of peptides. The cells were then incubated with different concentration ([…]) of FITC conjugated peptide for 1 hr at 4° C. After fixation, cells were washed, and counter stained with DAPI, mounted and subjected to confocal microscopy (Zeiss, Oberkochen, Germany). For the peptide internalization assay, the MDA MB231 cells were incubated with […] concentration of FITC-conjugated peptides at 37° C. for 1 hr 30 min, the procedure was then continued as previously described. For the receptor internalization assay, first the internalization of peptide was obtained as described above and then after several washing steps with PBS, the PD-L1 antibody (1:100 dilution) was incubated with the cell for 1 hr 30 min at 37° C. […] For flow cytometry, cells (1×10^6) were harvested and then suspended in the culture medium containing 1% BSA at RT for 1 hr for blocking and then incubated with FITC-labelled PD-L1 for another 1 hr at 4° C. After several washing, 300 ul of cell suspension with PBS was subjected to flow cytometry (BD, Franklin Lakes, N.J.). […]

| Substance | tumor volume control compared to control peptide and PBS group (CT26 syngeneic tumor) | percentage of CD4+ T cells in tumor tissue, increased value ("to") [1] [%] | surface PD-L1 antibody staining after peptide internalization (receptor internalization) (PD-L1 on MDA MB231 cells) |
| --- | --- | --- | --- |
| CLQKTPKQC [PD-L1Pep-1] | robust effect | 6 |  |
| NSSSVDK (phage coat protein used as control peptide) |  |  | did not decrease |
